Results published in patent US20240376085A1 (Janssen Pharmaceutica NV, priority 2021, published 2024).
pIC50: −log10 of the molar value.

What was measured:
[1] = target: T1, IL-17A : IL-17RA binding (Homo sapiens, UniProt Q16552, K93Q); assay: IL-17A(FLAG-tagged):IL-17RA(His-tagged) binding disruption Eu-HTRF assay, Protocol 1; conditions: FLAG-IL-17A 2.5 nM at 2x final concentration; average if tested more than once
T1 construct: Name: IL-17A-Flag
Excerpt: An antibody directed against the FLAG tag of IL-17A (SEQ ID NO: 1) is labeled with the HTRF donor chromophore (Europium-cryptate). IL-17A is present as a dimer that is “locked into” this quaternary structure due to the formation of loop-spanning […] disulfide bridges. The construct of IL-17RA used in the assay excludes the […] portion of the receptor and is fused to a C-terminal 10×His tag (SEQ ID NO:2). An antibody directed against the His tag of the IL-17RA chimera is labeled with the HTRF acceptor chromophore (“D2”). The fluorescence-resonance energy transfer (FRET) depends on the vicinity of the donor chromophore to the acceptor, and interruption of the binding between the IL-17A and IL-17RA causes the reduction/loss of FRET. Therefore, this assay allows to evaluate the compound effect on the binding IL-17A and IL-17RA by monitoring the fluorescence intensity of donor vs acceptor. The assay was run using either Protocol 1 or Protocol 2 as described below.
Protocol 1. 40 nl of 2-fold serial diluted compound solution for total 22 dilution points is added into each well of a 1536-well, white, low-volume, non-binding plate (Greiner #782904), then 2 μl of FLAG tagged IL-17A at 2× final concentration (2.5 nM) in solution of PBS+0.01% Triton-X100 is added to each well. The assay plate is briefly centrifuged then incubated for 1 h at rt. A mixed solution is prepared containing 2×5 nM 10HIS×IL-17RA, 2×2.5 nM Eu-anti-FLAG (CISBIO), 2×5 nM D2-anti-HIS (CISBIO) in PBS+0.01% Triton-X100+200 mM Potassium Fluoride (Sigma 60238) and 2 μl of mix is added to each well of the assay plate. The plate is briefly centrifuged then incubated for 2 h at rt. The HTRF intensities at the wavelength of donor (620 nm) and acceptor (665 nm) are measured using BMG Pherastar. The ratio between intensities at two wavelengths is calculated and plotted against the compound concentration and the data is fitted to a one-site competition model to yield IC50 of the compound.

[2] = tested on: IL-17A-induced G-CSF production in human normal keratinocyte (NHK); assay: NHK assay: IL-17A-induced G-CSF production in normal human keratinocytes; type: cell-based; conditions: 24 h, IL-17A 5 ng/mL, average if tested more than once
Method: IL-17A acts directly on keratinocytes through binding to dimeric receptor IL-17RA/RC and drives the production of a number of inflammatory mediators known to be elevated in psoriasis lesional tissue. IL-17A small molecule inhibitors that block the IL-17A to interact with IL-17R would inhibit the IL-17A signaling in its targeted cells such as keratinocytes. The compound functional activity is evaluated for its impact on IL-17A-induced G-CSF production in human normal keratinocyte (NHK).
Adult normal human keratinocytes are cultured in keratinocyte growth medium (Lonza) in a flask till reaching ˜90% confluence, then cells are transferred to a 384-well plate at density of 3000-4000 cell/well. Recombinant human IL-17A (Gibco PHC9174) is pre-incubated with titrated compound or DMSO for 1 h at rt then added to the cell culture plate. The final concentration of IL-17A is 5 ng/mL and DMSO is 0.2%, in the culture containing 5% FBS. Cells are cultured/treated for 24 h at 37° C. Supernatants are collected and G-CSF production is measured through HTRF technology using Human G-CSF Kit (CisBio). G-CSF concentration was extrapolated from the standard curve and IC50 is determined using GraphPad Prism. Cell viability is also evaluated using CellTiter-Glo kit (Promega) and effect of compound on cell viability is compared to DMSO control.

T1 sequence (Q16552 with tags, fused parts or gaps K93Q): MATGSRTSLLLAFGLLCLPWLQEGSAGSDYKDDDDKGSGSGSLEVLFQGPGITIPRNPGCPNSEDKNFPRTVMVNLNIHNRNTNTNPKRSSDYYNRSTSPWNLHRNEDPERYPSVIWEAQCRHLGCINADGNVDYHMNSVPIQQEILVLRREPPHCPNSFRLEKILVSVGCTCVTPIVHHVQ

| Compound | pIC50 [1] | pIC50 ([2]; Homo sapiens, Keratinocyte) | pIC50 [2] |
| --- | --- | --- | --- |
| Cc1nonc1C(=O)N[C@H](c1nc2ccc([C@H](NC(=O)CC3CC(F)(F)C3)C3CC3)cc2[nH]1)[C@@H]1CCCCO1 (relative stereo) [Example 248, N—((R*)-(6-((R)-Cyclopropyl(2-(3,3-difluorocyclobutyl)acetamido)methyl)-1H-benzo[d]imidazol-2-yl)((S*)-tetrahydro-2H-pyran-2-yl)methyl)-4-methyl-1,2,5-oxadiazole-3-carboxamide] | 7.00 to 7.30 | < 7.00 | – |
| Cc1nonc1C(=O)N[C@@H](c1nc2ccc([C@H](NC(=O)CC3CC(F)(F)C3)C3CC3)cc2[nH]1)[C@@H]1CCCCO1 (relative stereo) [Example 249, N—((S*)-(6-((R)-Cyclopropyl(2-(3,3-difluorocyclobutyl)acetamido)methyl)-1H-benzo[d]imidazol-2-yl)((S*)-tetrahydro-2H-pyran-2-yl)methyl)-4-methyl-1,2,5-oxadiazole-3-carboxamide] | < 7.00 | < 7.00 | – |
| CC(C)n1nccc1C(=O)N[C@H](c1nc2ccc([C@H](NC(=O)CC3CC(F)(F)C3)C3CC3)cc2[nH]1)[C@@H]1CCCCO1 (relative stereo) [Example 250, N—((R*)-(6-((R)-Cyclopropyl(2-(3,3-difluorocyclobutyl)acetamido)methyl)-1H-benzo[d]imidazol-2-yl)((S*)-tetrahydro-2H-pyran-2-yl)methyl)-1-isopropyl-1H-pyrazole-5-carboxamide] | 7.00 to 7.30 | 7.00 to 7.30 | – |
| CC(C)n1nccc1C(=O)N[C@@H](c1nc2ccc([C@H](NC(=O)CC3CC(F)(F)C3)C3CC3)cc2[nH]1)[C@@H]1CCCCO1 (relative stereo) [Example 251, N—((S*)-(6-((R)-Cyclopropyl(2-(3,3-difluorocyclobutyl)acetamido)methyl)-1H-benzo[d]imidazol-2-yl)((S*)-tetrahydro-2H-pyran-2-yl)methyl)-1-isopropyl-1H-pyrazole-5-carboxamide] | < 7.00 | < 7.00 | – |
| Cn1nccc1C(=O)N[C@H](c1nc2cc(C(NC(=O)CCC(F)(F)F)C3CCC3)ccc2[nH]1)C1CCC(F)(F)CC1 (single isomer, unassigned) [Example 42, N—((S)-(5-((S*)-Cyclobutyl(4,4,4-trifluorobutanamido)methyl)-1H-benzo[d]imidazol-2-yl)(4,4-difluorocyclohexyl)methyl)-1-methyl-1H-pyrazole-5-carboxamide] | < 7.00 | > 7.30 | – |
| Cn1nccc1C(=O)N[C@H](c1nc2cc(C(NC(=O)CCC(F)(F)F)C3CCC3)ccc2[nH]1)C1CCC(F)(F)CC1 (single isomer, unassigned) [Example 43, N—((S)-(5-((R*)-Cyclobutyl(4,4,4-trifluorobutanamido)methyl)-1H-benzo[d]imidazol-2-yl)(4,4-difluorocyclohexyl)methyl)-1-methyl-1H-pyrazole-5-carboxamide] | < 7.00 | – | < 7.00 |
| CC(C)C(NC(=O)CCC(F)(F)F)c1ccc2[nH]c([C@@H](NC(=O)c3ccnn3C)C3CCC(F)(F)CC3)nc2c1 (single isomer, unassigned) [Example 44, N—((S)-(4,4-Difluorocyclohexyl)(5-((S*)-2-methyl-1-(4,4,4-trifluorobutanamido)propyl)-1H-benzo[d]imidazol-2-yl)methyl)-1-methyl-1H-pyrazole-5-carboxamide] | < 7.00 | < 7.00 | – |
| CC(C)C(NC(=O)CCC(F)(F)F)c1ccc2[nH]c([C@@H](NC(=O)c3ccnn3C)C3CCC(F)(F)CC3)nc2c1 (single isomer, unassigned) [Example 45, N—((S)-(4,4-Difluorocyclohexyl)(5-((R*)-2-methyl-1-(4,4,4-trifluorobutanamido)propyl)-1H-benzo[d]imidazol-2-yl)methyl)-1-methyl-1H-pyrazole-5-carboxamide] | < 7.00 | – | 7.00 to 7.30 |
| Cn1nccc1C(=O)N[C@H](c1nc2cc(C(CC3CCC3)NC(=O)CCC(F)(F)F)ccc2[nH]1)C1CCC(F)(F)CC1 (single isomer, unassigned) [Example 46, N—((S)-(5-((S*)-2-Cyclobutyl-1-(4,4,4-trifluorobutanamido)ethyl)-1H-benzo[d]imidazol-2-yl)(4,4-difluorocyclohexyl)methyl)-1-methyl-1H-pyrazole-5-carboxamide] | < 7.00 | < 7.00 | – |
| Cn1nccc1C(=O)N[C@H](c1nc2cc(C(CC3CCC3)NC(=O)CCC(F)(F)F)ccc2[nH]1)C1CCC(F)(F)CC1 (single isomer, unassigned) [Example 47, N—((S)-(5-((R*)-2-Cyclobutyl-1-(4,4,4-trifluorobutanamido)ethyl)-1H-benzo[d]imidazol-2-yl)(4,4-difluorocyclohexyl)methyl)-1-methyl-1H-pyrazole-5-carboxamide] | < 7.00 | – | > 7.30 |
| CC(C)CC(NC(=O)CCC(F)(F)F)c1ccc2[nH]c([C@@H](NC(=O)c3ccnn3C)C3CCC(F)(F)CC3)nc2c1 (single isomer, unassigned) [Example 48, N—((S)-(4,4-Difluorocyclohexyl)(5-((S*)-3-methyl-1-(4,4,4-trifluorobutanamido)butyl)-1H-benzo[d]imidazol-2-yl)methyl)-1-methyl-1H-pyrazole-5-carboxamide] | < 7.00 | < 7.00 | – |
| CC(C)CC(NC(=O)CCC(F)(F)F)c1ccc2[nH]c([C@@H](NC(=O)c3ccnn3C)C3CCC(F)(F)CC3)nc2c1 (single isomer, unassigned) [Example 49, N—((S)-(4,4-Difluorocyclohexyl)(5-((R*)-3-methyl-1-(4,4,4-trifluorobutanamido)butyl)-1H-benzo[d]imidazol-2-yl)methyl)-1-methyl-1H-pyrazole-5-carboxamide] | < 7.00 | – | > 7.30 |
| CCCC(NC(=O)CCC(F)(F)F)c1ccc2[nH]c([C@@H](NC(=O)c3ccnn3C)C3CCC(F)(F)CC3)nc2c1 (single isomer, unassigned) [Example 50, N—((S)-(4,4-Difluorocyclohexyl)(5-((S*)-1-(4,4,4-trifluorobutanamido)butyl)-1H-benzo[d]imidazol-2-yl)methyl)-1-methyl-1H-pyrazole-5-carboxamide] | < 7.00 | < 7.00 | – |
| CCCC(NC(=O)CCC(F)(F)F)c1ccc2[nH]c([C@@H](NC(=O)c3ccnn3C)C3CCC(F)(F)CC3)nc2c1 (single isomer, unassigned) [Example 51, N—((S)-(4,4-Difluorocyclohexyl)(5-((R*)-1-(4,4,4-trifluorobutanamido)butyl)-1H-benzo[d]imidazol-2-yl)methyl)-1-methyl-1H-pyrazole-5-carboxamide] | < 7.00 | – | 7.00 to 7.30 |
| CCC(NC(=O)CCC(F)(F)F)c1ccc2[nH]c([C@@H](NC(=O)c3ccnn3C)C3CCC(F)(F)CC3)nc2c1 (single isomer, unassigned) [Example 52, N—((S)-(4,4-Difluorocyclohexyl)(5-((S*)-1-(4,4,4-trifluorobutanamido)propyl)-1H-benzo[d]imidazol-2-yl)methyl)-1-methyl-1H-pyrazole-5-carboxamide] | < 7.00 | < 7.00 | – |
| CCC(NC(=O)CCC(F)(F)F)c1ccc2[nH]c([C@@H](NC(=O)c3ccnn3C)C3CCC(F)(F)CC3)nc2c1 (single isomer, unassigned) [Example 53, N—((S)-(4,4-Difluorocyclohexyl)(5-((R*)-1-(4,4,4-trifluorobutanamido)propyl)-1H-benzo[d]imidazol-2-yl)methyl)-1-methyl-1H-pyrazole-5-carboxamide] | < 7.00 | – | 7.00 to 7.30 |
